In ChEMBL document CHEMBL5550129, “Optimization of benzenesulfonyl derivatives as anti-Trypanosomatidae agents: Structural design, synthesis, and pharmacological assessment against Trypanosoma cruzi and Leishmania infantum” (Bioorg Med Chem, 2024):

Legend:
[1] = Cytotoxicity against human THP-1 cells incubated for 72 hrs by Alamar blue assay; assay type: toxicity, cell-based
Trypanosoma cruzi [2] = assay: Antitrypanosomal activity against Trypanosoma cruzi Tulahuen expressing Escherichia coli beta-galactosidase infected in L929 cells pretreated with parasite for 50 hrs followed by compound addition and measured after 96 hrs; assay type: functional, organism-based
Leishmania infantum [3] = assay: Antileishmanial activity against Leishmania infantum MHOM/BR/1974/PP75 expressing red fluorescence protein infected in THP-1 cells pre-infected for 4 hrs followed by compound addition and measured after 72 hrs by microplate reader assay; assay type: functional, organism-based; conditions: MHOM/BR/1974/PP75, THP-1
[4] = Selectivity index, ratio of CC50 for human THP-1 cells to IC50 for Leishmania braziliensis MHOM/BR/75/M2904 expressing red fluorescence protein infected in THP-1 cells; assay type: toxicity, cell-based; conditions: read-out: Ratio CC50/IC50
Leishmania braziliensis [5] = assay: Antileishmanial activity against Leishmania braziliensis MHOM/BR/75/M2904 expressing red fluorescence protein infected in THP-1 cells pre-infected for 4 hrs followed by compound addition and measured after 72 hrs by microplate reader assay; assay type: functional, organism-based; conditions: MHOM/BR/75/M2904, THP-1
[6] = Cytotoxicity against mouse L929 cells incubated for 96 hrs by Alamar blue assay; assay type: toxicity, cell-based
[7] = Selectivity index, ratio of CC50 for human THP-1 cells to IC50 for Leishmania infantum MHOM/BR/1974/PP75 expressing red fluorescence protein infected in THP-1 cells; assay type: toxicity, cell-based; conditions: read-out: Ratio CC50/IC50
[8] = Selectivity index, ratio of CC50 for mouse L929 cells to IC50 for Trypanosoma cruzi Tulahuen expressing Escherichia coli beta-galactosidase infected in L929 cells; assay type: toxicity; conditions: read-out: Ratio CC50/IC50
[9] = Selectivity index, ratio of CC50 for mouse L929 cells to IC50 for Trypanosoma cruzi; assay type: toxicity; conditions: read-out: Ratio CC50/IC50
[10] = Cytotoxicity against human THP-1 cells; assay type: toxicity, cell-based
Leishmania infantum [11] = assay: Antileishmanial activity against Leishmania infantum; assay type: functional, organism-based
Trypanosoma cruzi [12] = assay: Antitrypanosomal activity against Trypanosoma cruzi; assay type: functional, organism-based
[13] = Selectivity index, ratio of CC50 for human THP-1 cells to IC50 for Leishmania infantum; assay type: toxicity; conditions: read-out: Ratio CC50/IC50
[14] = Selectivity index, ratio of CC50 for human THP-1 cells to IC50 for Leishmania braziliensis; assay type: toxicity; conditions: read-out: Ratio CC50/IC50
Leishmania braziliensis [15] = assay: Antileishmanial activity against Leishmania braziliensis; assay type: functional, organism-based
[16] = Cytotoxicity against mouse L929 cells; assay type: toxicity, cell-based

IC50 (Trypanosoma cruzi [2]) [µM]	IC50 (Leishmania infantum [3]) [µM]	IC50 (Leishmania braziliensis [5]) [µM]	Structure (SMILES)	CC50 at 72 h [1] [µM]	CC50 at 96 h [6] [µM]	selectivity ratio [7]	selectivity ratio [8]	other results
187	> 100	–	CC(=O)Nc1ccc(S(=O)(=O)N2CCN(c3ccc(OCCN(C)C)cc3)CC2)cc1	> 1000	–	–	–	–
7.1	25.1	70.5	COc1ccc(S(=O)(=O)N2CCN(c3ccc(OCCN(C)C)cc3)CC2)cc1	388	354	16	50	selectivity ratio [4]: 6
13.8	0.9	1.4	CN(C)CCOc1ccc(C(=O)N2CCN(S(=O)(=O)c3ccc(Cl)cc3)CC2)cc1	> 1000	345	> 2460	25	selectivity ratio [4]: > 714
> 200	> 100	–	O=S(=O)(c1ccc(F)cc1)N1CCN(c2ccccc2)CC1	–	–	–	–	–
–	–	–	O=S(=O)(c1ccc(Cl)cc1)N1CCNCC1	–	–	–	–	selectivity ratio [9]: 61; CC50 [10]: 1250 µM; IC50 (Leishmania infantum [11]): 5 µM; IC50 (Trypanosoma cruzi [12]): 3.7 µM; selectivity ratio [13]: > 250; selectivity ratio [14]: > 250; IC50 (Leishmania braziliensis [15]): 4.5 µM; CC50 [16]: 227 µM
7.2	23.3	40.3	N#CCOc1ccc(N2CCN(S(=O)(=O)c3ccc(Cl)cc3)CC2)cc1	46.6	–	2	71	selectivity ratio [4]: 1
137	0.6	4.4	CN(C)CCOc1cccc(C(=O)N2CCN(S(=O)(=O)c3ccc(Cl)cc3)CC2)c1	–	–	–	–	–
12.6	> 100	–	COc1ccc(Cl)cc1S(=O)(=O)N1CCN(c2ccc(OCCN(C)C)cc2)CC1	73.9	148	< 1	12	–
1.7	62.9	–	CN(C)CCOc1ccc(N2CCN(S(=O)(=O)c3ccc([N+](=O)[O-])cc3)CC2)cc1	343	302	6	178	–
6.4	6.1	21	CN(C)CCOc1ccc(N2CCN(S(=O)(=O)c3ccc(F)cc3)CC2)cc1	> 1000	374	> 405	58	selectivity ratio [4]: 48
137	4.6	41.7	CN(C)CCOc1cccc(N2CCN(S(=O)(=O)c3ccc(Cl)cc3)CC2)c1	170	–	37	–	selectivity ratio [4]: 4
145	35.9	–	O=C(c1ccc(-n2cnnn2)cc1)N1CCN(S(=O)(=O)c2ccc(Cl)cc2)CC1	> 1000	–	–	–	–
> 200	48.8	–	O=C(c1ccc([N+](=O)[O-])cc1)N1CCN(S(=O)(=O)c2ccc(Cl)cc2)CC1	> 1000	–	> 20	–	–
3.7	43.3	–	CN(C)CCOc1ccc(N2CCN(S(=O)(=O)c3ccccc3Br)CC2)cc1	161	10	4	3	–
2.2	> 100	–	Cc1ccc(S(=O)(=O)N2CCN(c3ccc(OCCN(C)C)cc3)CC2)cc1	298	289	< 3	136	–
108	0.8	0.7	N#CCOc1ccc(C(=O)N2CCN(S(=O)(=O)c3ccc(Cl)cc3)CC2)cc1	371	–	453	–	selectivity ratio [4]: 516
9.8	> 100	–	O=C(c1ccc(N2CCNCC2)nc1)N1CCN(S(=O)(=O)c2ccc(Cl)cc2)CC1	253	18	< 3	2	–
> 200	10.3	7.2	CN(C)CCOc1ccccc1C(=O)N1CCN(S(=O)(=O)c2ccc(Cl)cc2)CC1	> 500	–	> 49	–	selectivity ratio [4]: > 69.5
4.3	37.5	–	CN(C)CCOc1ccc(N2CCN(C(=O)c3ccc(Cl)cc3)CC2)cc1	> 1000	339	> 27	79	–
> 200	36.4	–	N#Cc1ccc(C(=O)N2CCN(S(=O)(=O)c3ccc(Cl)cc3)CC2)cc1	> 1000	–	–	–	–
65.9	35.7	–	CN(C)CCNc1ccc(C(=O)N2CCN(S(=O)(=O)c3ccc(Cl)cc3)CC2)cn1	388	395	11	6	–
> 200	> 100	–	Nc1ccc(C(=O)N2CCN(S(=O)(=O)c3ccc(Cl)cc3)CC2)cc1	> 1000	–	–	–	–
> 200	> 100	–	NCCOc1ccc(C(=O)N2CCN(S(=O)(=O)c3ccc(Cl)cc3)CC2)cc1	911	–	–	–	–
28	> 100	–	CN(C)CCOc1ccc(N2CCN(S(=O)(=O)c3ccccc3)CC2)cc1	650	91.2	< 7	3	–
168	55.2	–	CN(C)CCOc1ccc(N2CCN(S(=O)(=O)c3ccc(N)cc3)CC2)cc1	> 1000	–	> 11	–	–
13.4	29.6	29.6	COc1ccc(OC)c(S(=O)(=O)N2CCN(c3ccc(OCCN(C)C)cc3)CC2)c1	141	274	5	20	selectivity ratio [4]: 5
8.3	> 100	–	CN(C)CCOc1ccc(N2CCN(S(=O)(=O)c3ccc(Br)cc3)CC2)cc1	283	> 427	< 3	> 57	–
